From ChEMBL document CHEMBL4334438, “Discovery of novel glycogen synthase kinase-3α inhibitors: Structure-based virtual screening, preliminary SAR and biological evaluation for treatment of acute myeloid leukemia” (Eur J Med Chem, 2019)

What was measured:
[1] = system: Tyrosine-protein kinase ABL1 (Homo sapiens), P00519 [Q252H]; test: Inhibition of human ABL1 Q252H mutant (27 to end residues) assessed as residual activity at 1 uM using EAIYAAPFAKKK as substrate incubated for 40 mins in presence of [gamma-33ATP] by scintillation counting based radiometry assay relative to control
[2] = species on record: Homo sapiens; test: Inhibition of recombinant human Ros V2262A mutant (1883 to end residues) assessed as residual activity at 1 uM using KKKSPGEYVNIEFG as substrate measured after 40 mins in presence of [gamma33P]ATP by scintillation counting method relative to control
[3] = species on record: Homo sapiens; test: Inhibition of human activated Tec F514V mutant (174 to end residues) assessed as residual activity at 1 uM using EFPIYDFLPAKKK as substrate measured after 40 mins in presence of [gamma33P]ATP by scintillation counting method relative to control
[4] = target: Tyrosine-protein kinase BTK (Homo sapiens) (UniProt Q06187); test: Inhibition of recombinant full length human BTK assessed as residual activity at 1 uM using KVEKIGEGTYGVV substrate incubated for 40 mins in presence of [gamma-33ATP] by scintillation counting based radiometry assay relative to control
[5] = target: Serine/threonine-protein kinase tousled-like 2 (Homo sapiens) (UniProt Q86UE8); test: Inhibition of human TLK2 (387 to end residues) assessed as residual activity at 1 uM using casein as substrate measured after 40 mins in presence of [gamma33P]ATP by scintillation counting method relative to control
Chain of Serine/threonine-protein kinase tousled-like 2 (Homo sapiens) (Q86UE8 whole entry, looked up): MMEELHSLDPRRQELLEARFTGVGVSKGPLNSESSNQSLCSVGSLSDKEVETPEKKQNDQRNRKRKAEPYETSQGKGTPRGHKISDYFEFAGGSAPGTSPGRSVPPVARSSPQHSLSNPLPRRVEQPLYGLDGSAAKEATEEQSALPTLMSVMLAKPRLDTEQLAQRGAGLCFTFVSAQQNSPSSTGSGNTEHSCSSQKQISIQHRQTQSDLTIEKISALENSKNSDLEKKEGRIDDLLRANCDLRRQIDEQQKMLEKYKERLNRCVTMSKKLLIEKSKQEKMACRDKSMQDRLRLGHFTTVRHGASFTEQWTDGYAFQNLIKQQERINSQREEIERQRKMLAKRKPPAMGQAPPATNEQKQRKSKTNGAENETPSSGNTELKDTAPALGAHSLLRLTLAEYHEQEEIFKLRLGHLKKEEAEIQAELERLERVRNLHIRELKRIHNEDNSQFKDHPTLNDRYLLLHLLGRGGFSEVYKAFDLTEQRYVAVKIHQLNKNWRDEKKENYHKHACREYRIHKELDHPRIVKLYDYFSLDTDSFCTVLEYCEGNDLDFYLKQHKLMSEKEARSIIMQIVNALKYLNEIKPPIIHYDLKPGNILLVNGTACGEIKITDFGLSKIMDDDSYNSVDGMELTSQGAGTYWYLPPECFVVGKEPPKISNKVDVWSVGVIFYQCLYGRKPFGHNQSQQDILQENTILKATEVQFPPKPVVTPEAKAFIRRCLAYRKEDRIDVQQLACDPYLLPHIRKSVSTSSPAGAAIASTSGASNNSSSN

[6] = target: Serine/threonine-protein kinase PAK 4 (Homo sapiens) (UniProt O96013); test: Inhibition of recombinant human PAK4 (295 to end residues) assessed as residual activity at 1 uM using myelin basic protein as substrate measured after 40 mins in presence of [gamma33P]ATP by scintillation counting method relative to control
[7] = target: Fibroblast growth factor receptor 3 (Homo sapiens) (UniProt P22607); test: Inhibition of recombinant human FGFR3 (447 to 761 residues) assessed as residual activity at 1 uM using poly(Glu, Tyr) 4:1 as substrate at 40 mins in presence of [gamma-33ATP] by scintillation counting based radiometry assay relative to control
[8] = target: Serine/threonine-protein kinase SIK3 (Homo sapiens) (UniProt Q9Y2K2); test: Inhibition of recombinant human SIK3 (1 to 307 residues) assessed as residual activity at 1 uM using KKKVSRSGLYRSPSMPENLNRPR as substrate measured after 40 mins in presence of [gamma33P]ATP by scintillation counting method relative to control
[9] = target: Tyrosine-protein kinase HCK (Homo sapiens) (UniProt P08631); test: Inhibition of human HCK activated (230 to 497 residues) assessed as residual activity at 1 uM using GGMEDIYFEFMGGKKK as substrate after 40 mins by [gamma-33ATP] radiometric assay relative to control
Chain of Tyrosine-protein kinase HCK (Homo sapiens) (P08631 2-526 limits assumed): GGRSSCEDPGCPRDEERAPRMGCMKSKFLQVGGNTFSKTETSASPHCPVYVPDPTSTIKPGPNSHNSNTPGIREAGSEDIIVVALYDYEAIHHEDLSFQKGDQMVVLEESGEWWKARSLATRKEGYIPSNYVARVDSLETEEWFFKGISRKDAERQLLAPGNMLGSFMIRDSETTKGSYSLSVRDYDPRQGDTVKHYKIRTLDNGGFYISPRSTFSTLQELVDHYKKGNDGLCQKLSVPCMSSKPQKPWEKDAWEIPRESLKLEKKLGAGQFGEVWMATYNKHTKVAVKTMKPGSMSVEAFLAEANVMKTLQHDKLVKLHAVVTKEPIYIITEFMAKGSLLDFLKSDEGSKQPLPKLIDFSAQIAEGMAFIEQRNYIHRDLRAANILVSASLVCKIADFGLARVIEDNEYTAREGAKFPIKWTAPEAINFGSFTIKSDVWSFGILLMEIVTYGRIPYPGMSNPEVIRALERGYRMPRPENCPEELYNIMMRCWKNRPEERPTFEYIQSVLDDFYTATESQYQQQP

[10] = target: Mitogen-activated protein kinase kinase kinase kinase 5 (Homo sapiens) (UniProt Q9Y4K4); test: Inhibition of recombinant human MAP4K5 assessed as residual activity at 1 uM using myelin basic protein as substrate incubated for 40 mins in presence of [gamma-33ATP by scintillation counting based radiometry assay relative to control
[11] = target: Protein-tyrosine kinase 6 (Homo sapiens) (UniProt Q13882); test: Inhibition of recombinant full length human BRK assessed as residual activity at 1 uM using poly(Glu, Tyr) 4:1 as substrate incubated for 40 mins in presence of [gamma-33ATP] by scintillation counting based radiometry assay relative to control
[12] = target: Death-associated protein kinase 2 (Homo sapiens) (UniProt Q9UIK4); test: Inhibition of recombinant full length human DAPK2 assessed as residual activity at 1 uM Calmodulin as substrate incubated 40 mins in presence of [gamma-33ATP] by scintillation counting based radiometry assay relative to control
Chain of Death-associated protein kinase 2 (Homo sapiens) (Q9UIK4 whole entry, looked up, the tested form may be a part): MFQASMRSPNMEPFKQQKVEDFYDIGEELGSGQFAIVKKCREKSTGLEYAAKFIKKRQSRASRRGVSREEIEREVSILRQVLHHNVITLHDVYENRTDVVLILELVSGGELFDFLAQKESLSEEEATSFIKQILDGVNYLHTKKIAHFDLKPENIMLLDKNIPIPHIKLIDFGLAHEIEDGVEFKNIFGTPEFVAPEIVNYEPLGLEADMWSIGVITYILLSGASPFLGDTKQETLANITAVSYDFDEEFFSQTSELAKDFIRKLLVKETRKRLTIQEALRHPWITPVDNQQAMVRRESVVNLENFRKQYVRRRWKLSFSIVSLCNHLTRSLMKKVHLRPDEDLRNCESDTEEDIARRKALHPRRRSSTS

[13] = target: Receptor-interacting serine/threonine-protein kinase 2 (Homo sapiens) (UniProt O43353); test: Inhibition of recombinant human RIPK2 (1 to 299 residues) assessed as residual activity at 1 uM using myelin basic protein as substrate measured after 120 mins in presence of [gamma33P]ATP by scintillation counting method relative to control
Chain of Receptor-interacting serine/threonine-protein kinase 2 (Homo sapiens) (O43353 whole entry, the tested form may be a part): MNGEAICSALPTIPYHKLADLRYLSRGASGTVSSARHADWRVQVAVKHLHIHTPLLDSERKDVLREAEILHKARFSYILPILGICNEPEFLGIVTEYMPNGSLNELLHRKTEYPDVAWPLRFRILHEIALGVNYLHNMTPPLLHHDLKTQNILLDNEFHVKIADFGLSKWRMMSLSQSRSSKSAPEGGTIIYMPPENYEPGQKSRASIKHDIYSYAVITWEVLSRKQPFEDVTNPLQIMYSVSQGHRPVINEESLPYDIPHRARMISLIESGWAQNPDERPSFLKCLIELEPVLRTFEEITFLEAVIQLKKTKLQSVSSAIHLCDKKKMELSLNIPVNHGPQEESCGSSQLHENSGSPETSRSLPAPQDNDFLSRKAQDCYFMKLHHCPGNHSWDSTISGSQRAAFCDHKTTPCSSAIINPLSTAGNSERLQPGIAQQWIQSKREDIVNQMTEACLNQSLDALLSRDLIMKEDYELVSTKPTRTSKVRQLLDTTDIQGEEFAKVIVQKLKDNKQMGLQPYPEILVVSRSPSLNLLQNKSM

[14] = target: Serine/threonine-protein kinase 17A (Homo sapiens) (UniProt Q9UEE5); test: Inhibition of recombinant human DRAK1 assessed as residual activity at 1 uM using KKLNRTLSFAEPG as substrate at 40 mins in presence of [gamma-33ATP] by scintillation counting based radiometry assay relative to control
[15] = target: 3-phosphoinositide-dependent protein kinase 1 (Homo sapiens) (UniProt O15530); test: Inhibition of recombinant human PDK1 (52 to end residues) assessed as residual activity at 1 uM using PDKtide as substrate measured after 40 mins in presence of [gamma33P]ATP by scintillation counting method relative to control
Chain of 3-phosphoinositide-dependent protein kinase 1 (Homo sapiens) (O15530 whole entry): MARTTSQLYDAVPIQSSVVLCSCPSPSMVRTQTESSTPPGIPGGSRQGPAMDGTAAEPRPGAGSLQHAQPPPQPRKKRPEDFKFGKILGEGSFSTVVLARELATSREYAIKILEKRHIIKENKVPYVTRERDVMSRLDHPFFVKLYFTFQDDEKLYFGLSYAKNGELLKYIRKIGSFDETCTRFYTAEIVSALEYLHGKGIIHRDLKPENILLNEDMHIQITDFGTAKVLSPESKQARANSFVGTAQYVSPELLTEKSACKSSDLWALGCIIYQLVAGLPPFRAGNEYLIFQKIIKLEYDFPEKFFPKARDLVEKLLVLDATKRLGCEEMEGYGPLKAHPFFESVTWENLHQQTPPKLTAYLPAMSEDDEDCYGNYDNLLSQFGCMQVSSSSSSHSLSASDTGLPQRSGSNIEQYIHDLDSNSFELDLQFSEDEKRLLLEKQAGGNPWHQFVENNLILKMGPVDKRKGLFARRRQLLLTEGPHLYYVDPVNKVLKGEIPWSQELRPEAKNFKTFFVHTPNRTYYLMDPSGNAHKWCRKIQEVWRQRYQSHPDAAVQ

[16] = target: NUAK family SNF1-like kinase 1 (Homo sapiens) (UniProt O60285); test: Inhibition of recombinant human ARK5 (2 to end residues) assessed as residual activity at 1 uM using KKKVSRSGLYRSPSMPENLNRPR as substrate incubated for 40 mins in presence of [gamma-33ATP] by scintillation counting based radiometry assay relative to control
[17] = target: Serine/threonine-protein kinase mTOR (Homo sapiens) (UniProt P42345); test: Inhibition of recombinant full-length human mTOR assessed as residual activity at 1 uM measured after 40 mins in presence of [gamma33P]ATP by scintillation counting method relative to control
[18] = target: Mitogen-activated protein kinase kinase kinase 20 (Homo sapiens) (UniProt Q9NYL2); test: Inhibition of recombinant full-length human ZAK at 1 uM assessed as residual activity at 1 uM using MBP as substrate measured after 40 mins in presence of [gamma33P]ATP by scintillation counting method relative to control
[19] = target: Cyclin-dependent kinase 14/Cyclin-Y (Homo sapiens) (UniProt O94921+Q8ND76); test: Inhibition of recombinant full length human CDK14/cyclinY assessed as residual activity at 1 uM in presence of [gamma-33ATP] by scintillation counting based radiometry assay relative to control; type: protein-complex assay
[20] = target: Serine/threonine-protein kinase D2 (Homo sapiens) (UniProt Q9BZL6); test: Inhibition of recombinant full-length human PKD2 assessed as residual activity at 1 uM using KKLNRTLSVA as substrate measured after 40 mins in presence of [gamma33P]ATP by scintillation counting method relative to control
Chain of Serine/threonine-protein kinase D2 (Homo sapiens) (Q9BZL6 whole entry): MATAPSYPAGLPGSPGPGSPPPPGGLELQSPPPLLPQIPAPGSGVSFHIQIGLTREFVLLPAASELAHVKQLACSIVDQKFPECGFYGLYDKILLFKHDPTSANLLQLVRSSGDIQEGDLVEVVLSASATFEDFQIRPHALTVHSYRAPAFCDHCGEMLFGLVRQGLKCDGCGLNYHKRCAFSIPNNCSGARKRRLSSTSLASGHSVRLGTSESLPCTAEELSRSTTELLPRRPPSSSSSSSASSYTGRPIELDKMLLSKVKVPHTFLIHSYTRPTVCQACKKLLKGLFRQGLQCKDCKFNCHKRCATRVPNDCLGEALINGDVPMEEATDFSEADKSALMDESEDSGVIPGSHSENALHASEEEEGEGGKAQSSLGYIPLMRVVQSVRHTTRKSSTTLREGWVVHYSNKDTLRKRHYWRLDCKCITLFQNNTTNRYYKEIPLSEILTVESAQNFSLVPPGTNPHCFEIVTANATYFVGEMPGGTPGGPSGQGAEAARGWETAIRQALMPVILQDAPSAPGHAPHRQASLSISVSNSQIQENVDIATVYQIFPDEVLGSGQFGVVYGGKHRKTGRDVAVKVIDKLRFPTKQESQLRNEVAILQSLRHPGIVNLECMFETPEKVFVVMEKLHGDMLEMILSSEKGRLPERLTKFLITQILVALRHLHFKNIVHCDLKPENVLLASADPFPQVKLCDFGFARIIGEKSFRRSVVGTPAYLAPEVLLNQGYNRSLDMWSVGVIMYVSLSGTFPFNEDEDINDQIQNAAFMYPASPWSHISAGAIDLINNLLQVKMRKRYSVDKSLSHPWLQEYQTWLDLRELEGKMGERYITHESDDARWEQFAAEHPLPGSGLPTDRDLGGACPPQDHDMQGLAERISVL

[21] = target: Hepatocyte growth factor receptor (Homo sapiens) (UniProt P08581); test: Inhibition of recombinant human MET A1209G/V1290L mutant (974 to end residues) assessed as residual activity at 1 uM using KKKGQEEEYVFIE as substrate incubated for 40 mins in presence of [gamma-33ATP by scintillation counting based radiometry assay relative to control
Chain of Hepatocyte growth factor receptor (Homo sapiens) (P08581 whole entry, the tested form may be a part): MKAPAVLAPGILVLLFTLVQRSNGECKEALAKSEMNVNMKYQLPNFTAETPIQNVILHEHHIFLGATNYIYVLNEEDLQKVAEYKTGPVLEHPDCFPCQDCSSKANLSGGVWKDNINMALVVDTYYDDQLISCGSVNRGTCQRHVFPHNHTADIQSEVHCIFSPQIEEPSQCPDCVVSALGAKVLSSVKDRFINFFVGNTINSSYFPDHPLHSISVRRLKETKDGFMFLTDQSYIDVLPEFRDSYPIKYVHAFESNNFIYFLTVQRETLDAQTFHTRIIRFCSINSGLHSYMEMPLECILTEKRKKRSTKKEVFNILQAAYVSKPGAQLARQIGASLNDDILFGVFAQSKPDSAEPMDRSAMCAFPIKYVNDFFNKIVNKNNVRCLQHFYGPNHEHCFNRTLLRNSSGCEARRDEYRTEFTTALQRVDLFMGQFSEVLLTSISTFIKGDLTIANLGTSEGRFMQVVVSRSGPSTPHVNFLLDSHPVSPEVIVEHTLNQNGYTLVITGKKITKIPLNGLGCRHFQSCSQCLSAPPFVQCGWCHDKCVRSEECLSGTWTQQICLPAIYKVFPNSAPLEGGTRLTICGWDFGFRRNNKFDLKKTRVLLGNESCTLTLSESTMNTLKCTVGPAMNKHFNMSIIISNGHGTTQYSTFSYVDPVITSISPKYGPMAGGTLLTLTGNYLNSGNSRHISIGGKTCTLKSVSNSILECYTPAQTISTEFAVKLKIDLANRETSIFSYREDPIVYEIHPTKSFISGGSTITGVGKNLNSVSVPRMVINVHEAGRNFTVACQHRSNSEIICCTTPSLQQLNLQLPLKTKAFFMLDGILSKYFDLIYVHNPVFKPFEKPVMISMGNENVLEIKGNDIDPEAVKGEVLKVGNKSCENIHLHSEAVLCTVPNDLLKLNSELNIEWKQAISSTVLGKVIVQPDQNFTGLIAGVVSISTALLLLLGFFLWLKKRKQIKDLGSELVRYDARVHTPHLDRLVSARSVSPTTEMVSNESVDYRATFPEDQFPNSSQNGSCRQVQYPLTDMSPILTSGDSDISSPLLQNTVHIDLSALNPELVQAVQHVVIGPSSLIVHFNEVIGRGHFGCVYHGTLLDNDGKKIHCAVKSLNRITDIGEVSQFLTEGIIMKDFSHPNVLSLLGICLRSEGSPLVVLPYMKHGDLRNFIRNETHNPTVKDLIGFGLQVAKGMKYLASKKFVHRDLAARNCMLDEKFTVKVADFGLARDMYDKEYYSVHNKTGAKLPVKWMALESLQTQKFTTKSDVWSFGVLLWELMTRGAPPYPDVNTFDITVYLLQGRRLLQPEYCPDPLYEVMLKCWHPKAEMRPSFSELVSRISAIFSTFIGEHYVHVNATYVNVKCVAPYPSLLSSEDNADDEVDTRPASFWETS

[22] = target: Insulin receptor (Homo sapiens) (UniProt P06213); test: Inhibition of human IR (1005 to 1310 residues) assessed as residual activity at 1 uM using KKSRGDYMTMQIG as substrate after 40 mins by [gamma-33ATP] radiometric assay relative to control

SMILES | Activity [1] [%] | Activity [2] [%] | Activity [3] [%] | Activity [4] [%] | Activity [5] [%] | Activity [6] [%] | Activity [7] [%] | Activity [8] [%] | Activity [9] [%] | Activity [10] [%] | Activity [11] [%] | Activity [12] [%] | Activity [13] [%] | Activity [14] [%] | Activity [15] [%] | Activity [16] [%] | Activity [17] [%] | Activity [18] [%] | Activity [19] [%] | Activity [20] [%] | also measured
C=CCOC(=O)c1cc(-c2ccc(/C=C3/NC(=S)NC3=O)o2)ccc1Cl | 110 | 118 | 99 | 101 | 106 | 101 | 106 | 96 | 103 | 94 | 106 | 86 | 62 | 83 | 87 | 79 | 88 | 115 | 91 | 99 | Activity [21]: 102%; Activity [22]: 108%
N=C1NC(=O)/C(=C\c2ccc(-c3cccc([N+](=O)[O-])c3)o2)S1 | 80 | 95 | 96 | 93 | 93 | 92 | 107 | 101 | 80 | 95 | 103 | 83 | 66 | 80 | 96 | 99 | 95 | 114 | 84 | 103 | Activity [21]: 96%; Activity [22]: 97%
